The term solubility denotes the concentration that dissolves in the medium under given conditions. A lower solubility goes with little dissolved substance. As a reminder, the IC50 is the concentration that inhibits the measured activity by half. A word on the half-life: it is the time in which the quantity being followed falls by half. By melting point is commonly meant the temperature, or range, at which the solid turns liquid.

Data on two compounds can be found in patent US20050009759A1 (priority 2001, published 2005).

Values after ≈ are worked out from the molar mass of the structure shown. Like-named read-outs stand apart in the source and are kept apart here. Some results are limits rather than exact numbers.

One data set can be described thus: Solubility in water. To be noted: for solubility: water, in water / aqueous solvents. In kind it is physicochemical.
The next data set deals with L1210 cells. In words: In vitro cytotoxicity, microculture tetrazolium assay (MTA). In kind it is cell-based. To be noted: Mus musculus. The procedure: Cytotoxicity was tested against L1210 (mouse leukemic cell line) cells using the MTA assay.
L1210 cells were cultivated in RPMI 1640 medium (Gibco) supplemented with 10% fetal calf serum, 2 mM L-glutaine, 100 units/mL penicillin, 100 µg/mL streptomycin, and 10 mM HEPES buffer (pH=7.4). Cytotoxicity was measured by the microculture tetrazolium assay (MTA). Cells were exposed to graded concentrations of drug (nine serial dilutions in triplicate) for 48 h. Results are expressed as IC50, the concentration which reduced by 50% the optical density of treated cells with respect to the optical density of untreated controls.

Data set [1] is described as follows: Stability in phosphate buffer solution followed by HPLC. To be noted: phosphate buffer pH 7 (0.02 M, pH 7.2), 37° C. In kind it is physicochemical. The procedure: The stability of 1a was followed by HPLC measurements in buffer solution at pH 7 for 24 hours. More than 90% of the prodrug was recovered after that time, meaning that the prodrug 1a is stable in vitro.
(§1) Good separation in a short delay was obtained with a reversed-phase Phenyl analytical column (Spherisorb 250×4,6) using isocratic conditions (1 mL/min) of 60% phosphate buffer (0.02 M, pH 3) and 40% acetonitrile with UV detection at 254 nm. Using these conditions the retention time of etoposide, prodrug, and cyclized spacer were 4.9, 3.4, 5.8. min., respectively.
A solution of […] of prodrug 1a in 0.02 M phosphate buffer (pH 7.2) was incubated for various times at 37° C. Aliquots (100 μL) were taken at various times and analyzed by HPLC after dilution with eluent (300 μL).

For data set [2], the target named is E. coli β-D-glucuronidase (Escherichia coli, UniProt P05804). In words: Enzymatic cleavage by E. coli β-D-glucuronidase (kinetics of drug release, HPLC). In kind it is biochemical. To be noted: E. coli β-D-glucuronidase in phosphate buffer; 500 μg/mL prodrug, 20 μg/mL E. coli β-D-glucuronidase, phosphate buffer pH 7.2, 37° C. The procedure: Prodrug 1a (500 μg/mp) was incubated with E. coli β-D-glucuronidase (20 μ/mL). Aliquot samples were analysed by IPLC at different times (FIG. 1: Enzymatic cleavage of prodrug 1a).
Sequence of E. coli β-D-glucuronidase (P05804 whole entry): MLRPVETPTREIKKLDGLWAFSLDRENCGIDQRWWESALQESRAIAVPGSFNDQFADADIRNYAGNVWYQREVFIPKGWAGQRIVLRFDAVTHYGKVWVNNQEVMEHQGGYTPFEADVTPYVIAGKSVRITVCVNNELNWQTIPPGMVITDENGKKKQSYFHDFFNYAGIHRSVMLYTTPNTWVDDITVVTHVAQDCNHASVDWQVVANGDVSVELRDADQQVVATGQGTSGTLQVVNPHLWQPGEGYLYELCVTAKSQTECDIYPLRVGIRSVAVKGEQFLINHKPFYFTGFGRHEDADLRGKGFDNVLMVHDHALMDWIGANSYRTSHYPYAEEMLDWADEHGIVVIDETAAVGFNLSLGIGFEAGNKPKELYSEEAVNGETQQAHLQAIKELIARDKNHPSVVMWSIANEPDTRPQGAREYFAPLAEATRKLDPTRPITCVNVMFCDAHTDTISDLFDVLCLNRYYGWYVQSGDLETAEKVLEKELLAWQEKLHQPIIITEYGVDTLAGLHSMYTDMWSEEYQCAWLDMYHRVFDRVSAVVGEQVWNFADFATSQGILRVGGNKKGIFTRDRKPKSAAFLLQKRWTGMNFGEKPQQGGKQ
as §1
Hydrolysis was investigated by incubating a solution of 500 μg/mL of prodrug 3 and 20 μg/mL of E. coli β-D-glucuronidase in 0.02 M phosphate buffer (pH 7.2) at 37° C. Aliquots (100 μl) were taken at various times and analyzed by HPLC after dilution with 300 μl of eluent.

`COc1cc([C@@H]2c3cc4c(cc3[C@@H](O[C@@H]3O[C@@H]5CO[C@@H](C)O[C@H]5[C@H](O)[C@H]3O)[C@H]3COC(=O)[C@H]23)OCO4)cc(OC)c1O` [etoposide, reference compound]: the solubility in “Solubility in water” is 0.1 mg/mL (≈ 0.17 mM). For the same compound, the IC50 in the data set on L1210 cells (L1210 cell line, 48 h exposure, without enzyme, read-out: IC50) turned out to be 834 nM.

Consider `COc1cc([C@@H]2c3cc4c(cc3C(OC3OC5COC(C)O[C@H]5C(O)[C@@H]3O)[C@H]3COC(=O)[C@H]23)OCO4)cc(OC)c1OC(=O)N(C)c1cc([N+](=O)[O-])ccc1O[C@@H]1OC(C(=O)O)[C@@H](O)C(O)C1O` (stereo partly drawn) [prodrug 1a], for which the melting point came to 186 °C. Further, the “fold more soluble than the corresponding drug” value in the data set “Solubility in water” (in water, comparable conditions, versus etoposide) is on record as “approximately 200 fold”. The same compound yielded a solubility in “Solubility in water” of around 20 mg/mL (≈ 20.9 mM). It took 50200 nM to reach half-maximal inhibition in the data set with L1210 cells (L1210, 48 h) (IC50). In addition, in the data set with L1210 cells (L1210, read-out: IC50 after hydrolysis by β-glucuronidase), the IC50 came to 930 nM. Further, the “prodrug recovered/remaining after 24 hours” value in data set [1] was “More than 90%”. In addition, the half-life at 500 μg/mL in data set [2] is below 25 min.
